Legend:
Type in all cases: functional
SK-OV-3 = experiment: Growth inhibition of human SKOV3 cells assessed as cell growth at 1 uM after 48 hrs by SRB assay; conditions: SK-OV-3, 48 h, read-out: Activity
786-0 = experiment: Growth inhibition of human 786-0 cells assessed as cell growth at 1 uM after 48 hrs by SRB assay; conditions: 786-0, 48 h, read-out: Activity
SN12C = experiment: Growth inhibition of human SN12C cells assessed as cell growth at 1 uM after 48 hrs by SRB assay; conditions: read-out: Activity
UO-31 = experiment: Growth inhibition of human UO31 cells assessed as cell growth at 1 uM after 48 hrs by SRB assay; conditions: UO-31, 48 h, read-out: Activity
NCI-H522 [1] = experiment: Growth inhibition of human NCI-H522 cells assessed as cell growth at 10 uM after 48 hrs by SRB assay; conditions: NCI-H522, 48 h, read-out: Activity
COLO 205 = experiment: Growth inhibition of human COLO205 cells after 48 hrs by […] growth inhibition assay; conditions: COLO 205, 48 h
LOX IMVI [2] = experiment: Growth inhibition of human LOXIMVI cells after 48 hrs by […] growth inhibition assay
IGROV-1 = experiment: Growth inhibition of human IGROV1 cells after 48 hrs by […] growth inhibition assay; conditions: IGROV-1, 48 h
A498 [3] = experiment: Growth inhibition of human A498 cells after 48 hrs by […] growth inhibition assay; conditions: A498, 48 h
CAKI-1 [4] = experiment: Growth inhibition of human Caki1 cells after 48 hrs by […] growth inhibition assay; conditions: CAKI-1, 48 h
MCF7 = experiment: Growth inhibition of human MCF7 cells after 48 hrs by […] growth inhibition assay; conditions: MCF7, 48 h
CCRF-CEM [5] = experiment: Growth inhibition of human CCRF-CEM cells assessed as cell growth at 0.1 uM after 48 hrs by SRB assay; conditions: read-out: Activity
NCI-H522 [6] = experiment: Growth inhibition of human NCI-H522 cells assessed as cell growth at 0.1 uM after 48 hrs by SRB assay; conditions: NCI-H522, 48 h, read-out: Activity
OVCAR-4 = experiment: Growth inhibition of human OVCAR4 cells assessed as cell growth at 0.1 uM after 48 hrs by SRB assay; conditions: OVCAR-4, 48 h, read-out: Activity
A498 [7] = experiment: Growth inhibition of human A498 cells assessed as cell growth at 0.1 uM after 48 hrs by SRB assay; conditions: A498, 48 h, read-out: Activity
DU-145 = experiment: Growth inhibition of human DU145 cells assessed as cell growth at 0.1 uM after 48 hrs by SRB assay; conditions: DU-145, 48 h, read-out: Activity
M14 = experiment: Growth inhibition of human M14 cells assessed as cell growth at 10 uM after 48 hrs by SRB assay; conditions: M14, 48 h, read-out: Activity
RXF 393 = experiment: Growth inhibition of human RXF393 cells assessed as cell growth at 10 uM after 48 hrs by SRB assay; conditions: RXF 393, 48 h, read-out: Activity
T47D = experiment: Growth inhibition of human T47D cells assessed as cell growth at 10 uM after 48 hrs by SRB assay; conditions: read-out: Activity
NCI-H23 [8] = experiment: Growth inhibition of human NCI-H23 cells assessed as cell growth at 100 uM after 48 hrs by SRB assay; conditions: NCI-H23, 48 h, read-out: Activity
CCRF-CEM [9] = experiment: Growth inhibition of human CCRF-CEM cells assessed as cell growth at 1 mM after 48 hrs by SRB assay; conditions: read-out: Activity
NCI-H23 [10] = experiment: Growth inhibition of human NCI-H23 cells assessed as cell growth at 1 mM after 48 hrs by SRB assay; conditions: NCI-H23, 48 h, read-out: Activity
SF-295 [11] = experiment: Growth inhibition of human SF295 cells assessed as cell growth at 1 mM after 48 hrs by SRB assay; conditions: SF-295, 48 h, read-out: Activity
CAKI-1 [12] = experiment: Growth inhibition of human Caki1 cells assessed as cell growth at 1 mM after 48 hrs by SRB assay; conditions: CAKI-1, 48 h, read-out: Activity
MDA-MB-231 = experiment: Growth inhibition of human MDA-MB-231 cells assessed as cell growth at 1 mM after 48 hrs by SRB assay; conditions: MDA-MB-231, 48 h, read-out: Activity
MDA-MB-435 = experiment: Growth inhibition of human MDA-MB-435 cells after 48 hrs by SRB assay; conditions: MDA-MB-435, 48 h
HOP-92 = experiment: Growth inhibition of human HOP92 cells assessed as cell growth at 1 uM after 48 hrs by SRB assay; conditions: HOP-92, 48 h, read-out: Activity
HCT-15 = experiment: Growth inhibition of human HCT15 cells assessed as cell growth at 1 uM after 48 hrs by SRB assay; conditions: HCT-15, 48 h, read-out: Activity
SF-295 [13] = experiment: Growth inhibition of human SF295 cells assessed as cell growth at 1 uM after 48 hrs by SRB assay; conditions: SF-295, 48 h, read-out: Activity
SF-539 = experiment: Growth inhibition of human SF539 cells assessed as cell growth at 1 uM after 48 hrs by SRB assay; conditions: SF-539, 48 h, read-out: Activity
SNB-75 = experiment: Growth inhibition of human SNB75 cells assessed as cell growth at 1 uM after 48 hrs by SRB assay; conditions: SNB-75, 48 h, read-out: Activity
LOX IMVI [14] = experiment: Growth inhibition of human LOXIMVI cells assessed as cell growth at 1 uM after 48 hrs by SRB assay; conditions: read-out: Activity
[15] = read-out: LC50 (the source's name)
[16] = read-out: pLC50 (the source's name) (converted)

Work on `CCOC(=O)C[C@H]1[C@@H](O[Si](C)(C)C(C)(C)C)[C@H](n2cnc3c(NC(=O)Nc4ccccc4)ncnc32)O[C@@H]1CNC(=O)NC` yielded a growth at 1 µM (SK-OV-3) of 96%, a growth at 1 µM (786-0) of 83% and a growth at 1 µM (SN12C) of 101%. For the same molecule, the growth at 1 µM (UO-31) was 87%, the growth at 10 µM (NCI-H522 [1]) was 83% and the GI50 (COLO 205; read-out: GI50) was 3.84 µM. For the same molecule, the CC50 (COLO 205; [15]) was over 100 µM, the TGI (COLO 205; read-out: TGI) was over 100 µM and the GI50 (COLO 205; read-out: pGI50 (converted)) was 3.8 µM. It also gave a CC50 (COLO 205; [16]) of over 100 µM, a TGI (COLO 205; read-out: pTGI (converted)) of over 100 µM and a GI50 (LOX IMVI [2]; read-out: GI50) of 5.46 µM. The CC50 (LOX IMVI [2]; [15]) was over 100 µM, the TGI (LOX IMVI [2]; read-out: TGI) was over 100 µM and the GI50 (LOX IMVI [2]; read-out: pGI50 (converted)) was 5.5 µM. For the same molecule, the CC50 (LOX IMVI [2]; [16]) was over 100 µM, the TGI (LOX IMVI [2]; read-out: pTGI (converted)) was over 100 µM and the GI50 (IGROV-1; read-out: GI50) was 3.85 µM. It also gave a CC50 (IGROV-1; [15]) of 79.2 µM, a TGI (IGROV-1; read-out: TGI) of 18 µM and a GI50 (IGROV-1; read-out: pGI50 (converted)) of 3.89 µM. The CC50 (IGROV-1; [16]) was 79.4 µM, the TGI (IGROV-1; read-out: pTGI (converted)) was 18.2 µM and the GI50 (A498 [3]; read-out: GI50) was 3.34 µM. For the same molecule, the CC50 (A498 [3]; [15]) was over 100 µM, the TGI (A498 [3]; read-out: TGI) was 17.1 µM and the GI50 (A498 [3]; read-out: pGI50 (converted)) was 3.31 µM. The CC50 (A498 [3]; [16]) was over 100 µM, the TGI (A498 [3]; read-out: pTGI (converted)) was 17 µM and the GI50 (CAKI-1 [4]; read-out: GI50) was 29.7 µM. For the same molecule, the CC50 (CAKI-1 [4]; [15]) was over 100 µM, the TGI (CAKI-1 [4]; read-out: TGI) was over 100 µM and the GI50 (CAKI-1 [4]; read-out: pGI50 (converted)) was 29.5 µM. It also gave a CC50 (CAKI-1 [4]; [16]) of over 100 µM, a TGI (CAKI-1 [4]; read-out: pTGI (converted)) of over 100 µM and a GI50 (MCF7; read-out: GI50) of 3.42 µM. It also gave a CC50 (MCF7; [15]) of over 100 µM, a TGI (MCF7; read-out: TGI) of 45.1 µM and a GI50 (MCF7; read-out: pGI50 (converted)) of 3.39 µM. For the same molecule, the CC50 (MCF7; [16]) was over 100 µM, the TGI (MCF7; read-out: pTGI (converted)) was 44.7 µM and the growth at 0.1 µM (CCRF-CEM [5]) was 96%. For the same molecule, the growth at 0.1 µM (NCI-H522 [6]) was 89%, the growth at 0.1 µM (OVCAR-4) was 98% and the growth at 0.1 µM (A498 [7]) was 95%. The growth at 0.1 µM (DU-145) was 110%, the growth at 10 µM (M14) was 81% and the growth at 10 µM (RXF 393) was 92%. For the same molecule, the growth at 10 µM (T47D) was 73%, the growth at 100 µM (NCI-H23 [8]) was 65% and the growth at 1000 µM (CCRF-CEM [9]) was -2%. For the same molecule, the growth at 1000 µM (NCI-H23 [10]) was 36%, the growth at 1000 µM (SF-295 [11]) was 24% and the growth at 1000 µM (CAKI-1 [12]) was 7%. For the same molecule, the growth at 1000 µM (MDA-MB-231) was -13%, the GI50 (MDA-MB-435; read-out: GI50) was 6.21 µM and the LC50 (MDA-MB-435; read-out: LC50) was over 100 µM. The TGI (MDA-MB-435; read-out: TGI) was over 100 µM, the GI50 (MDA-MB-435; read-out: pGI50 (converted)) was 6.17 µM and the LC50 (MDA-MB-435; read-out: pLC50 (converted)) was over 100 µM. For the same molecule, the TGI (MDA-MB-435; read-out: pTGI (converted)) was over 100 µM, the growth at 1 µM (HOP-92) was -1% and the growth at 1 µM (HCT-15) was 96%. The growth at 1 µM (SF-295 [13]) was 91%, the growth at 1 µM (SF-539) was 91% and the growth at 1 µM (SNB-75) was 90%. The growth at 1 µM (LOX IMVI [14]) was 97%.

— ChEMBL document CHEMBL1681651, “A broad spectrum anticancer nucleoside with selective toxicity against human colon cells in vitro” (2011)
